{
  "source": "patent US6893846B2",
  "about": "“Primers for use in detecting beta-lactamases” (priority 1998, dated 2005)",
  "key": {"K. pneumoniae": {"test_system": "K. pneumoniae", "assay": "Agar dilution MIC, South African isolates", "type": "cell-based, Klebsiella pneumoniae", "conditions": "tzp with tazobactam 4 μg/ml", "text": "The strains were provided in response to a request for all strains of Enterobacteriaceae, lacking inducible beta-lactamases, that were intermediate or resistant to cefotaxime or ceftazidime. […]"}, "K. pneumoniae 225 [1]": {"test_system": "K. pneumoniae 225", "assay": "NCCLS disk diffusion assay", "type": "cell-based, Klebsiella pneumoniae", "conditions": "disk diffusion, Kleb 225"}, "[2]": {"test_system": "E. coli HB101 transformant (17 kb plasmid)", "conditions": "disk diffusion, Tr (17 kb) = transformant E. coli HB101"}, "E. aerogenes [3]": {"test_system": "E. aerogenes", "assay": "Double-disk potentiation test", "type": "cell-based, Enterobacter aerogenes", "conditions": "all the E. aerogenes strains selected; potentiation by clavulanic acid", "text": "This test described by Jarlier et al., Rev. Infect. Dis."}, "[4]": {"molecular_target": "beta-lactamases in sonic extracts of K. pneumoniae (Klebsiella pneumoniae, UniProt P0AD64, E235K/G234S)", "conditions": "Kpn2, beta-lactamase pI 8.2 (SHV-5); 0.75 μg/ml cefotaxime"}, "[5]": {"molecular_target": "beta-lactamases in sonic extracts of K. pneumoniae (Klebsiella pneumoniae, UniProt P0AD64)", "conditions": "Kpn1, beta-lactamase pI 7.6 (SHV-1); 0.75 μg/ml cefotaxime"}, "[6]": {"test_system": "beta-lactamases in sonic extracts of K. pneumoniae", "conditions": "0.75 μg/ml cefotaxime"}, "[7]": {"molecular_target": "beta-lactamases in sonic extracts of K. pneumoniae (Escherichia coli, UniProt P62593)", "conditions": "0.75 μg/ml cefotaxime"}, "E. aerogenes [8]": {"test_system": "E. aerogenes", "type": "cell-based, Enterobacter aerogenes", "protocol": "Antibiotic susceptibilities were determined by standard disk-diffusion (NCCLS Standard M2-A6) and agar-dilution (NCCLS Standard M7-A4) procedures. Disks were obtained from Becton Dickinson Microbiology Systems (Cockeysville, Md.). […] Throughout this study, results were interpreted using NCCLS criteria for disk diffusion (NCCLS M2-A6) and broth dilution (NCCLS M7-A4)."}, "[9]": {"test_system": "beta-lactamases in sonic extracts of E. aerogenes", "assay": "Isoelectric focusing overlay: cefotaxime hydrolysis, inhibitors, induction", "conditions": "0.75 μg/ml cefotaxime"}, "K. pneumoniae 225 [10]": {"test_system": "K. pneumoniae 225", "assay": "Three-dimensional test (enzymatic inactivation of antibiotics)", "conditions": "beta-lactamase-mediated hydrolysis by K. pneumoniae 225, lawn E. coli ATCC 25922"}, "[11]": {"molecular_target": "single beta-lactamase in E. coli cell extracts (Escherichia coli, UniProt P62593, E102K/R162S)", "assay": "Spectrophotometric hydrolysis assay on crude beta-lactamase extracts", "conditions": "E. coli Pit 64 extract, beta-lactamase pI 5.6; 100 μM substrate"}, "K. pneumoniae 225 [12]": {"test_system": "K. pneumoniae 225", "assay": "NCCLS microdilution susceptibility test", "type": "cell-based, Klebsiella pneumoniae", "conditions": "Klebsiella pneumoniae, 225"}, "[13]": {"molecular_target": "beta-lactamases in sonic extracts of P. mirabilis (Escherichia coli, UniProt P62593, E102K/R162S)", "assay": "Isoelectric focusing overlay: cefotaxime hydrolysis and inhibitors", "conditions": "beta-lactamase pI 5.6 (TEM-10 or 26), 0.75 μg/ml cefotaxime"}, "K. pneumoniae 225 [14]": {"test_system": "K. pneumoniae 225", "conditions": "test drug disk around amoxicillin-clavulanate disk"}, "[15]": {"molecular_target": "single beta-lactamase in P. mirabilis cell extracts (Escherichia coli, UniProt P62593, E102K/R162S)", "assay": "Spectrophotometric hydrolysis assay on crude beta-lactamase extracts", "conditions": "P. mirabilis Pit 85 extract, beta-lactamase pI 5.6; 100 μM substrate"}, "P. mirabilis": {"test_system": "P. mirabilis", "assay": "Agar dilution MIC, South African isolates", "type": "cell-based, Proteus mirabilis", "conditions": "4 strains, tzp with tazobactam 4 μg/ml", "in_short": "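Clinical isolates from South African hospitals, intermediate or resistant to cefotaxime or ceftazidime and lacking inducible beta-lactamases, were tested by NCCLS M7-T2 agar dilution. Quality-control strains E. coli ATCC 25922 and 35218, P. aeruginosa ATCC 27853 and S. aureus ATCC 29213 were run alongside. Results were interpreted by NCCLS criteria.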"}},
  "note": "Where two headings read alike, the source gives them in different places.",
  "data": [
    {"compound": "CO/N=C(\\C(=O)N[C@@H]1C(=O)N2C(C(=O)O)=C(COC(C)=O)CS[C@H]12)c1csc(N)n1", "note": "[cefotaxime]", "values": [
      {"measurement": "MIC range", "setting": "K. pneumoniae; resistance phenotype Kpn1, 8 strains", "result": "0.25 to 1", "unit": "mg/L"},
      {"measurement": "MIC range", "setting": "K. pneumoniae; resistance phenotype Kpn2, 28 strains", "result": "4 to 64", "unit": "mg/L"},
      {"measurement": "MIC range", "setting": "K. pneumoniae; resistance phenotype Kpn3 (K. pneumoniae Pit 68), 1 strain, listed as ctx", "result": 4, "unit": "mg/L"},
      {"measurement": "Zone Size", "setting": "K. pneumoniae 225 [1]", "result": 15, "unit": "mm"},
      {"measurement": "Zone Size", "setting": "[2]", "result": 34, "unit": "mm"},
      {"measurement": "double disk test", "setting": "E. aerogenes [3]", "result": "positive"},
      {"measurement": "ctx hydrolysis", "setting": "[4]", "result": "Yes"},
      {"measurement": "ctx hydrolysis", "setting": "[5]", "result": "No"},
      {"measurement": "ctx hydrolysis", "setting": "[6]; Kpn1, beta-lactamase pI 5.6 (TEM-10 or 26)", "result": "Yes"},
      {"measurement": "ctx hydrolysis", "setting": "[6]; Kpn2, beta-lactamase pI 7.6 (SHV-2 or 8)", "result": "Yes"},
      {"measurement": "ctx hydrolysis", "setting": "[6]; Kpn3, beta-lactamase pI 8.0 (AmpC)", "result": "Yes"},
      {"measurement": "ctx hydrolysis", "setting": "[7]; Kpn2, beta-lactamase pI 5.4 (TEM-1)", "result": "No"},
      {"measurement": "ctx hydrolysis", "setting": "[7]; Kpn3, beta-lactamase pI 5.4 (TEM-1)", "result": "No"},
      {"measurement": "MIC range", "setting": "E. aerogenes [8]; 1 E. aerogenes strain with Bush group 1 and group 2be (SHV-3) enzymes", "result": 1, "unit": "mg/L"},
      {"measurement": "MIC range", "setting": "E. aerogenes [8]; 1 E. aerogenes strain with Bush group 1 and group 2be (SHV-5) enzymes", "result": "1 to 2", "unit": "mg/L"},
      {"measurement": "MIC range", "setting": "E. aerogenes [8]; 29 E. aerogenes strains with Bush group 1 and group 2be (SHV-4) enzymes", "result": "1 to 2", "unit": "mg/L"},
      {"measurement": "susceptibility by MIC", "setting": "E. aerogenes [8]; all E. aerogenes strains", "result": "decreased susceptibility"},
      {"measurement": "Ctx Hydrolysis", "setting": "[9]; SHV-3 strain (1), Bush group 1 enzyme pI 8.3", "result": "no"},
      {"measurement": "Ctx Hydrolysis", "setting": "[9]; SHV-3 strain (1), Bush group 2be enzyme pI 6.9", "result": "yes"},
      {"measurement": "Ctx Hydrolysis", "setting": "[9]; SHV-4 strains (29), Bush group 1 enzyme pI 8.3", "result": "no"},
      {"measurement": "Ctx Hydrolysis", "setting": "[9]; SHV-4 strains (29), Bush group 2be enzyme pI 7.8", "result": "yes"},
      {"measurement": "Ctx Hydrolysis", "setting": "[9]; SHV-5 strain (1), Bush group 1 enzyme pI 8.3", "result": "no"},
      {"measurement": "Ctx Hydrolysis", "setting": "[9]; SHV-5 strain (1), Bush group 2Be enzyme pI 8.0", "result": "yes"},
      {"measurement": "three dimensional test", "setting": "K. pneumoniae 225 [10]", "result": "positive"},
      {"measurement": "Hydrolysis", "setting": "[11]", "result": "1 nmol of substrate hydrolyzed/m"},
      {"measurement": "MIC", "setting": "K. pneumoniae 225 [12]", "result": 16, "unit": "mg/L"},
      {"measurement": "ctx hydrolysis", "setting": "[13]", "result": "Yes"},
      {"measurement": "clavulanate double-disk potentiation test", "setting": "K. pneumoniae 225 [14]", "result": "positive"},
      {"measurement": "Hydrolysis", "setting": "[15]", "result": "5 nmol of substrate hydrolyzed/m"},
      {"measurement": "MIC range", "setting": "P. mirabilis", "result": "0.25 to 0.5", "unit": "mg/L"}
    ]}
  ]
}
